Holding throughout (assay): MIC, broth microdilution
Holding throughout (type): cell-based
(Broth dilution looks for growth in wells or tubes with falling amounts of substance.)

In one experiment the test system is A. baumannii ATCC 19606. The following applies: Acinetobacter baumannii, ATCC19606; A. baumannii ATCC 19606; read-out: Minimum inhibitory concentration A.b.^f. As to the method:
(§1) The minimum inhibitory concentration of 3H-imidazo[4,5-C]pyridine pleuromutilin onium salt derivatives against the tested pathogenic microorganisms were determined by broth microdilution method, with valnemulin and retapamulin as positive controls.
(§2) The experimental strains included resistant Gram-positive bacteria: Methicillin-resistant S. aureus ATCC 33591; Methicillin-resistant S. aureus ATCC 43300; S. aureus ATCC 29213; Methicillin-resistant S. epidermidis ATCC 51625. Resistant Gram-negative bacteria: A. baumannii ATCC 19606; S. enterica ATCC14028; E. coli ATCC 25922; E. coli CMCC 44103. 9 clinically isolated resistant strains: MRSA-171; MRSA-575; MRSA-206; MRSA-222; MRSA-596; VRE-80; MDR-PA-126; MDR-KP-893; CR-AB-882.
(§3) (1) Preparation of MHB medium: Weigh 18.0 g of MHB medium pre-made powder, add it to 1 L of distilled water, heat and boil until completely dissolved, divide it into conical bottles, sterilize it by high pressure at 121° C. for 15 minutes, and set aside.
(§4) (2) Cultivate the experimental strain to the logarithmic growth phase: Under sterile conditions, inoculate the experimental strain into fresh MHB medium and culture it in a 37° C. constant temperature and humidity incubator for 16-24 hours. Adjust the bacterial solution concentration to 1.5×10^8 CFU/mL and then dilute it 200 times for later use.
(§5) (3) Preparation of storage solution: Weigh the sample to be tested, dissolve it in 1% DMSO solution, and prepare a storage solution with a concentration of 2560 μg/mL; weigh the positive control, dissolve it in sterile distilled water, and prepare a storage solution with a concentration of 2560 μg/mL.
(§6) (4) Preparation of bacterial suspension: Under sterile conditions, the experimental strain cultured to the logarithmic growth phase was calibrated to a 0.5 McFarland unit turbidity standard using MHB medium and then diluted at a ratio of 1:200 to prepare a bacterial suspension with a concentration of 5×10^5 CFU/mL for later use.
(§7) (5) Determination of MIC by two-fold microdilution method: Take a sterile 96-well plate, add 10 μL of the test compound at a concentration of 2560 μg/mL, and perform serial dilutions by the two-fold dilution method. At the same time, set up a negative control group without drug. Then add 190 μL of diluted bacterial solution to each well, so that the final bacterial solution concentration in each well is 5×10^5 CFU/mL, and incubate in a 37° C. constant temperature and humidity chamber for 24 hours.

The subject of the next experiment is E. coli ATCC 25922. The following applies: Escherichia coli, ATCC25922; E. coli ATCC 25922; read-out: Minimum inhibitory concentration E.c.^h. On the procedure:
as §1, §2, §3, §4, §5, §6, §7

For a further experiment, the system named is E.coli CMCC 44103. The following applies: Escherichia coli, CMCC44103; E.coli CMCC 44103; read-out: Minimum inhibitory concentration E.c.^i. As to the method: as §1, §2, §3, §4, §5, §6, §7
Experiment [1] has as its system Methicillin-resistant S. aureus ATCC 33591. The following applies: Staphylococcus aureus, ATCC 33591 / MRSA; Methicillin-resistant S. aureus ATCC 33591; read-out: Minimum inhibitory concentration MRSA^b. On the procedure:
as §1, §2, §3, §4, §5, §6, §7

Experiment [2] relates to Methicillin-resistant S. aureus ATCC 43300. The following applies: Staphylococcus aureus, ATCC 43300 / MRSA; Methicillin-resistant S. aureus ATCC 43300; read-out: Minimum inhibitory concentration MRSA^c. On the procedure:
as §1, §2, §3, §4, §5, §6, §7

In experiment [3] the test system is Methicillin-resistant S. epidermidis ATCC 51625. The following applies: Staphylococcus epidermidis, ATCC 51625 / MRSE; Methicillin-resistant S. epidermidis ATCC 51625; read-out: Minimum inhibitory concentration MRSE^e. On the procedure:
as §1, §2, §3, §4, §5, §6, §7

For another experiment, the system named is S. aureus ATCC 29213. The following applies: Staphylococcus aureus, ATCC29213; S. aureus ATCC 29213; read-out: Minimum inhibitory concentration S.a.^d. On the procedure:
as §1, §2, §3, §4, §5, §6, §7

Another experiment deals with S. enterica ATCC14028. The following applies: Salmonella enterica; S. enterica ATCC14028; read-out: Minimum inhibitory concentration S.e.^g. On the procedure:
as §1, §2, §3, §4, §5, §6, §7

This is an account of results in US12275734B1, “Pleuromutilin onium salt derivative containing a 3H-imidazo[4,5-c]pyridine side chain, and a preparation method and application thereof” (SHAANXI UNIVERSITY OF SCIENCE AND TECHNOLOGY, priority 2024, dated 2025).

Each structure is given as a SMILES string.

Consider `C=C[C@]1(C)C[C@@H](OC(=O)CSc2nc3cc[n+](Cc4cc(F)ccc4C#N)cc3[nH]2)[C@]2(C)[C@H](C)CC[C@]3(CCC(=O)[C@H]32)[C@@H](C)[C@@H]1O` [Compound m, 5-(2-cyano-5-fluorobenzyl)-2-((2-(((3aR,4R,5R,7S,8S,9R,9aS,12R)-8-hydroxy-4,7,9,12-tetramethyl-3-oxo-7-vinyldecahydro-4,9a-propancyclopenta[8]cyclo-5-yl)oxy)-2-oxoethyl)thio)-3H-imidazo[4,5-C]pyridine-5-ium], for which the MIC with A. baumannii ATCC 19606 was found to be 64 µg/mL; with E. coli ATCC 25922, 64 µg/mL; in the experiment on E.coli CMCC 44103, 32 µg/mL; in experiment [1], 64 µg/mL; in experiment [2], 32 µg/mL; in experiment [3], 64 µg/mL. Besides, the MIC with S. aureus ATCC 29213 and with S. enterica ATCC14028 was 32 µg/mL each time.
For the compound `C=C[C@]1(C)C[C@@H](OC(=O)CSc2nc3cc[n+](Cc4ccc(-c5ccccc5)cc4)cc3[nH]2)[C@]2(C)[C@H](C)CC[C@]3(CCC(=O)[C@H]32)[C@@H](C)[C@@H]1O` [Compound j, 5-([1,1′-biphenyl]-4-ylmethyl)-2-((2-(((3aR,4R,5R,7S,8S,9R,9aS,12R)-8-hydroxy-4,7,9,12-tetramethyl-3-oxo-7-vinyldecahydro-4,9a-propancyclopenta[8]cyclo-5-yl)oxy)-2-oxoethyl)thio)-3H-imidazo[4,5-C]pyridine-5-ium], the MIC with A. baumannii ATCC 19606 was 16 µg/mL; in the experiment on E. coli ATCC 25922 it was 64 µg/mL; with E.coli CMCC 44103, 8 µg/mL; in experiment [1], 32 µg/mL; in experiment [2] it was 16 µg/mL; in experiment [3] it was 32 µg/mL. Further, the MIC with S. aureus ATCC 29213 was found to be 4 µg/mL; with S. enterica ATCC14028, 8 µg/mL.
On to `C=C[C@]1(C)C[C@@H](OC(=O)CSc2nc3cc[n+](Cc4ccc(OC)cc4)cc3[nH]2)[C@]2(C)[C@H](C)CC[C@]3(CCC(=O)[C@H]32)[C@@H](C)[C@@H]1O` [Compound d, 5-(4-methoxybenzyl)-2-((2-(((3aR,4R,5R,7S,8S,9R,9aS,12R)-8-hydroxy-4,7,9,12-tetramethyl-3-oxo-7-vinyldecahydro-4,9a-propancyclopenta[8]cyclo-5-yl)oxy)-2-oxoethyl)thio)-3H-imidazo[4,5-C]pyridine-5-ium], for which the MIC worked out at 16 µg/mL in the experiment on A. baumannii ATCC 19606; 4 µg/mL with E. coli ATCC 25922; 32 µg/mL in the experiment with E.coli CMCC 44103; 16 µg/mL in experiment [1]; 8 µg/mL in experiment [2]; 16 µg/mL in experiment [3]. Besides, the MIC in the experiment with S. aureus ATCC 29213 was 32 µg/mL; with S. enterica ATCC14028, 16 µg/mL.
